Entries after “also recorded” stand apart in the source; their conditions may differ.
Tests used:
[1] = test system: pig sciatic nerve tissue cross sections; test: Ex vivo nerve-specific fluorophore screening on nerve tissue sections; details: for nerve-specific fluorescence signal in cross-sectioned nerve: 20 min incubation; for adipose uptake: both ex vivo and in vivo
Method: Phase contrast image (top) and fluorescence image (bottom) of nerve tissue sections incubated with 100 μM of test fluorophores are shown. Nerve-specific fluorescence intensity was determined using staining of pig sciatic nerve cut in cross section. Nerve tissue sections were incubated in 30% FBS solutions without (negative control, autofluorescence only) and with each fluorophore. As a positive control, previously reported nerve-specific BMB was used. Shown are phase contrast image (top) and fluorescence image (bottom) of nerve tissue sections incubated with 100 μM of each fluorophore. The control autofluorescence images were taken with equivalent exposure time and normalization. Arrowheads indicate fluorescence signals in nerve bundles. Ad=adipose tissue. Scale bars=200 μm. The SBR of each nerve relative to the neighboring adipose tissue was quantified and labeled as—, SBR<1; +, SBR=1−2; and ++, SBR >2.
Sciatic nerves from female Yorkshire pigs were harvested, fixed in 2% paraformaldehyde (PFA), and flash frozen in optimal cutting temperature (OCT) compound using liquid nitrogen. Nerve tissues were cut in cross section using a cryostat at […] thickness onto positively charge glass slides. Tissue sections were washed once with phosphate buffered saline (PBS) for 2 min to remove residual OCT. The tissue was then fixed to the slide with 2% PFA for 15 min, followed by washing with PBS (3×5 min). A formulation was previously developed for intravenous (IV) administration and was used in the current study to incubate the fluorophores with the nerve tissue (25). All fluorophores were mixed from the 100 mM stock solution into the IV formulation at 100 µM and incubated with the washed nerve tissue sections at room temperature for 20 min. Additional IV formulation not containing fluorophore was mixed and used to wash each nerve section twice (5 min per wash) following incubation with the formulated fluorophore. The nerve section was then washed an additional 2 times with PBS (5 min per each), after which coverslips were mounted using Fluoromount-G (Southern Biotech, Birmingham, Ala.).
NIR fluorescence microscopy for ex vivo nerve tissue slides was performed on a Nikon Eclipse TE300 microscope system as previously described (12, 19, 25). The microscope was equipped with a 100 W mercury light source, NIR-compatible optics, and a NIR-compatible 10× Plan Fluor objective lens and a 100× Plan Apo oil immersion objective lens (Nikon, Melville, N.Y.). Images were acquired on an Orca-AG (Hamamatsu, Bridgewater, N.J.). Image acquisition and analysis was performed using IPLab software (Scanalytics, Fairfax, Va.). A custom filter set (Chroma Technology Corporation, Brattleboro, Vt.) composed of a 650±22 nm excitation filter, a 675 nm dichroic mirror, and an 710±25 nm emission filter were used to detect Oxazine derivatives and Rhodamine 800 signals in the nerve tissue slides. For BMB, a mercury light source was passed through a 360±25 nm BP excitation filter, a 400 nm LP beam splitter, and a 550±50 nm emission filter.

[2] = test system: rat brachial plexus and sciatic nerves; test: In vivo nerve-specificity screening with FLARE imaging; details: for nerve-specific fluorescence signal in vivo: SD rats, 2 mg/kg (1 μmol) iv, 4 h after injection, brachial plexus and sciatic nerve
Source text: The dual-NIR channel FLARE^a imaging system has been described in detail previously (26-28). In this study, a 670 nm excitation was used at a fluence rate of 4 mW/cm^2, with white light (400-650 nm) at 40,000 1×. Color and NIR fluorescence images were acquired simultaneously with custom software at rates up to 15 Hz over a 15 cm diameter field of view. A pseudo-colored lime green was used for NIR fluorescence in the color-NIR merged images. The imaging system was positioned at a distance of 18 inches from the surgical field.
Initial in vivo screening occurred in rats based on our previous study of BMB (Supplementary Methods) (25). For kinetic and dose-response studies, 50-400 nmol (0.8-6.3 mg/kg) of Oxazine 4 was injected intravenously into mice and measurements taken over 24 h. Control images were acquired prior to injecting NIR fluorophores. The fluorescence signal in nervous tissues and signal-to-background ratio (SBR) compared to neighboring muscle (Mu) were obtained over the period of imaging. For the large animal study, the optimal dose found in mice (200-400 nmol per mouse) was used in pigs by scaling to body surface area (29, 30).
Sprague-Dawley (SD) male rats weighing 250-300 g were purchased from Charles River Laboratories (Wilmington, Mass.). BMB, Oxazine 1, Oxazine 4, Oxazine 170, Oxazine 750, and Rhodamine 800 were initially screened to investigate nerve specificity in rats. For the initial screening, we administered a relatively high dose (2 mg/kg; 1 μmol) of each fluorophore intravenously. 4 h after injection, brachial plexus (BP) and sciatic nerve (SN) were imaged using the intraoperative FLARE^a system for in vivo nerve-specific fluorophores screening.

[3] = Optical property measurements (absorbance and fluorescence spectra); format: physicochemical; details: 100% FBS with 50 mM HEPES, pH 7.4, 37° C.
Method: Absorbance and fluorescence spectra were obtained at a concentration of […] in 100% FBS supplemented with 50 mM HEPES, pH 7.4. B) Optical properties of Oxazine 4 were measured in PBS (pH 7.4), FBS (pH 7.4), MeOH, and DMSO.
Oxazine derivatives were obtained from Fisher Scientific Inc. (Pittsburgh, Pa.) or Sigma-Aldrich (Saint Louis, Mo.), and BMB was synthesized as described previously (25). Optical measurements were performed at 37° C. in phosphate-buffered saline (PBS), pH 7.4 or 100% fetal bovine serum (FBS) buffered with 50 mM HEPES, pH 7.4. Absorbance and fluorescence emission spectra were measured using fiber optic HR2000 absorbance (200-1100 nm) and USB2000FL fluorescence (350-1000 nm) spectrometers (Ocean Optics, Dunedin, Fla.). NIR excitation was provided by a 532 nm green laser pointer (Opcom Inc., Xiamen, China) set to 5 mW and coupled through a […] core diameter, NA 0.22 fiber (Fiberguide Industries, Stirling, N.J.). In silico calculation of the partition coefficient (log D at pH 7.4) was calculated using Marvin and J Chem calculator plugins (ChemAxon, Budapest, Hungary). Chemical similarities were calculated by Instant J Chem 6.04 using “Chemical Hashed Fingerprint” with the Normalized Euclidean dissimilarity screening configuration (ChemAxon).
All optical measurements were performed at 37° C. in phosphate-buffered saline (PBS), pH 7.4, 100% fetal bovine serum (FBS) buffered with 50 mM HEPES, pH 7.4, methanol (MeOH), or dimethyl sulfoxide (DMSO). Absorbance and fluorescence emission spectra of the series of NIR fluorophores were measured using fiber optic HR2000 absorbance (200-1100 nm) and USB2000FL fluorescence (350-1000 nm) spectrometers (Ocean Optics, Dunedin, Fla.). Excitation light was provided by a 532 nm green laser pointer (Opcom Inc., Xiamen, China) set to 5 mW and coupled through a 300 μm core diameter, NA 0.22 fiber (Fiberguide Industries, Stirling, N.J.). In silico calculation of the partition coefficient (log D at pH 7.4) was calculated using Marvin and J Chem calculator plugins (ChemAxon, Budapest, Hungary).

[4] = 100 μM fluorophore, pig sciatic nerve sections
[5] = comparison of structures in discussion

## COc1cc(/C=C/c2ccc(N)cc2)ccc1/C=C/c1ccc(N)cc1 [BMB, reference compound]
[1]; [4]
  nerve-specific fluorescence signal in cross-sectioned nerve: relatively high fluorescence signal in the nerve
  SBR of nerve relative to neighboring adipose tissue: < 1
  adipose fluorescence signal: even higher than the target signal
[2]
  nerve-specific fluorescence signal in vivo: nerve highlighting fluorophores
[3]
  Abs (peak absorbance): 397 nm
  Em (peak emission): 498 nm
  λ (extinction coefficient): 52,800 M^−1cm^−1

## CCN(CC)c1ccc2nc3ccc(=[N+](CC)CC)cc-3oc2c1 [Oxazine 1]
[1]; [4]
  nerve-specific fluorescence signal in cross-sectioned nerve: did not show any nerve-specific fluorescence signal
  adipose fluorescence signal: adipose-specific fluorescence signal only
[2]
  nerve-specific fluorescence signal in vivo: weak signal in the vicinity of nerve
[2]; [5]
  adipose signal (discussion summary): high adipose
  nerve signal (discussion summary): low nerve signal
[3]
  Abs (peak absorbance): 655 nm
  Em (peak emission): 670 nm
  λ (extinction coefficient): 196,000 M^−1cm^−1

## CC/N=c1/cc2oc3cc(NCC)c(C)cc3nc-2c2ccccc12 [Oxazine 170]
[1]; [4]
  nerve-specific fluorescence signal in cross-sectioned nerve: weak nerve-specific fluorescence signal
[1]
  adipose uptake: strong adipose uptake; also recorded: high accumulation in adipose tissue
[2]
  nerve-specific fluorescence signal in vivo: nerve highlighting fluorophores
[3]
  Abs (peak absorbance): 625 nm
  Em (peak emission): 650 nm
  λ (extinction coefficient): 69,000 M^−1cm^−1

## CC/N=c1/cc2oc3c4c5c(cc3nc-2c2ccccc12)CCCN5CCC4 [Oxazine 750]
[1]; [4]
  nerve-specific fluorescence signal in cross-sectioned nerve: strong fluorescence signal throughout the cross-sectioned nerve
[1]
  adipose uptake: strong adipose uptake
[3]
  Abs (peak absorbance): 676 nm
  Em (peak emission): 684 nm
  λ (extinction coefficient): 44,000 M^−1cm^−1

## N#CC1=c2cc3c4c(c2Oc2c1cc1c5c2CCCN5CCC1)CCC[N+]=4CCC3 [Rhodamine 800]
[1]; [4]
  nerve-specific fluorescence signal in cross-sectioned nerve: strong fluorescence signal throughout the cross-sectioned nerve
[2]; summary statement related to log D
  uptake in / targeting of nerve: low and low targeting affinity to the nerve
[3]
  Abs (peak absorbance): 697 nm
  Em (peak emission): 710 nm
  λ (extinction coefficient): 68,000 M^−1cm^−1
